From ChEMBL document CHEMBL5465560, “Selectivity Literature for EUbOPEN Chemogenomic Library” (2024) come the findings set out here.

Assay [1] deals with T1, Receptor-interacting serine/threonine-protein kinase 1 (Homo sapiens) (UniProt Q13546).
T1 sequence (whole entry): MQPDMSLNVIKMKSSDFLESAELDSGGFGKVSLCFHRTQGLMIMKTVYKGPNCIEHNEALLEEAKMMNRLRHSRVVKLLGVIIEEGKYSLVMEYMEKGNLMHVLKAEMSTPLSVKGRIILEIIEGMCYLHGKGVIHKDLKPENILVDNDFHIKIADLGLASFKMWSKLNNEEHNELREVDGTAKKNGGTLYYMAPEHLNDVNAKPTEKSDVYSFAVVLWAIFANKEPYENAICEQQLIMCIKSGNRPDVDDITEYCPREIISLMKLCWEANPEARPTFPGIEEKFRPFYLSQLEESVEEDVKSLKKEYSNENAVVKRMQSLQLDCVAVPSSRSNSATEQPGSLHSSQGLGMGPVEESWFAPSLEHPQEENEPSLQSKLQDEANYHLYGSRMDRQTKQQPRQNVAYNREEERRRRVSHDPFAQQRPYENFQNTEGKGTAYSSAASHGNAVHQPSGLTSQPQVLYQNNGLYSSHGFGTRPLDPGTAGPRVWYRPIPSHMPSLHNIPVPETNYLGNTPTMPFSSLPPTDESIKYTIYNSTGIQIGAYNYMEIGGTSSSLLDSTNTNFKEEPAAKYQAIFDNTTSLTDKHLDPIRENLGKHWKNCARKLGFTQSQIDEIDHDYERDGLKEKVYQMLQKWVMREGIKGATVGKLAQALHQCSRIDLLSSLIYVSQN
As to conditions: at 10 µM.

Assay [2] concerns the target T2, Tyrosine-protein kinase Tec (Homo sapiens) (UniProt P42680).
T2 sequence (whole entry): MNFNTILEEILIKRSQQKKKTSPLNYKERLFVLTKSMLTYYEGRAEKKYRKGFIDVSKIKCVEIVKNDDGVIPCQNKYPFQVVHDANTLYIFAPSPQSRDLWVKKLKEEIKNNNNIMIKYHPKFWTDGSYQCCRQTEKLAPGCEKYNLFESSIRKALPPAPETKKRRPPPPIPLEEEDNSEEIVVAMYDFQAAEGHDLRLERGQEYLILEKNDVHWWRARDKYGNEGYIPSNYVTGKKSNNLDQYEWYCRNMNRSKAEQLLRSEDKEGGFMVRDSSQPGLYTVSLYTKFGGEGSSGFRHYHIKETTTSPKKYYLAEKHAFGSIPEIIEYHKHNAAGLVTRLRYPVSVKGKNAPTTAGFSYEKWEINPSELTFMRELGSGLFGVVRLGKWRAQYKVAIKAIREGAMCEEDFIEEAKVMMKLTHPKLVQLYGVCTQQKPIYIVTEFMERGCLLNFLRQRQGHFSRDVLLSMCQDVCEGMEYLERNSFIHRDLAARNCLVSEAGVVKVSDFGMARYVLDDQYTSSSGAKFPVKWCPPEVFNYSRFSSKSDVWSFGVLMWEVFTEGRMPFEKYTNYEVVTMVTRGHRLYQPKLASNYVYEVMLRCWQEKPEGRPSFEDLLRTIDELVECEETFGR
Put plainly: Selectivity interaction (KinomeScan (DiscoverX)) EUB0001079a TEC. To be noted: at 1 µM.

The target of assay [3] is Proto-oncogene tyrosine-protein kinase receptor Ret (Homo sapiens, UniProt P07949). Description: Selectivity interaction (Millipore kinase profiler) EUB0000124b RET. To be noted: at 10 µM.
Assay [4] concerns the target T3, 5-hydroxytryptamine receptor 3A (Homo sapiens) (UniProt P46098).
T3 sequence (whole entry): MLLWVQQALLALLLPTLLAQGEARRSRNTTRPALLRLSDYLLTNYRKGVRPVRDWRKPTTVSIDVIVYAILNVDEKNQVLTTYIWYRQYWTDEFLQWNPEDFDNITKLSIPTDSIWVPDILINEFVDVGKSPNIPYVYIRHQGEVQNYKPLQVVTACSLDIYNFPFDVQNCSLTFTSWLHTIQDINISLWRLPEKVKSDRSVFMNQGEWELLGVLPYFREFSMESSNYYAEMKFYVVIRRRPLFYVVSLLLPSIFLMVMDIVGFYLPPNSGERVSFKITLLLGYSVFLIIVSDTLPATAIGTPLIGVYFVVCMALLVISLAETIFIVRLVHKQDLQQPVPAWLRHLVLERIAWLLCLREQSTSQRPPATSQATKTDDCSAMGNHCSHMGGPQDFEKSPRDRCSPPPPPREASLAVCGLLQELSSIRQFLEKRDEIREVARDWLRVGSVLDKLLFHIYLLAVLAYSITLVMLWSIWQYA
Description: Selectivity interaction (Panel of kinases, GPCRs, ion channels and transporters (enzymatic assay)) EUB0000223bCl HTR3A.

The target of assay [5] is T4, RNA 5'-monophosphate methyltransferase (Homo sapiens) (UniProt Q7Z5W3).
T4 sequence (whole entry): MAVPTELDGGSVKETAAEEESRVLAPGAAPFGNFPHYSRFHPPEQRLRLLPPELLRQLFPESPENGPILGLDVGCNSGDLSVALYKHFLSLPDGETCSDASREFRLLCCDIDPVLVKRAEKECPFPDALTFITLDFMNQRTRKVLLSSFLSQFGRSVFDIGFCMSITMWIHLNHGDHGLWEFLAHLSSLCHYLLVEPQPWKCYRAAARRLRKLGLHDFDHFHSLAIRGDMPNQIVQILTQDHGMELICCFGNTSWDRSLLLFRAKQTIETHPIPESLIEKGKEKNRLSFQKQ
Description: Selectivity interaction (Transferase panel (protein, RNA, and DNA methyltransferases. and EP300 (acetyltransferase))) EUB0000270b BCDIN3D.

The target of assay [6] is Mitogen-activated protein kinase kinase kinase 20 (Homo sapiens) (UniProt Q9NYL2). Description: Selectivity interaction (KinomeScan (DiscoverX)) EUB0000045b MAP3K20.
Mitogen-activated protein kinase kinase kinase 20 (Homo sapiens), sequence (Q9NYL2 2-800 limits assumed): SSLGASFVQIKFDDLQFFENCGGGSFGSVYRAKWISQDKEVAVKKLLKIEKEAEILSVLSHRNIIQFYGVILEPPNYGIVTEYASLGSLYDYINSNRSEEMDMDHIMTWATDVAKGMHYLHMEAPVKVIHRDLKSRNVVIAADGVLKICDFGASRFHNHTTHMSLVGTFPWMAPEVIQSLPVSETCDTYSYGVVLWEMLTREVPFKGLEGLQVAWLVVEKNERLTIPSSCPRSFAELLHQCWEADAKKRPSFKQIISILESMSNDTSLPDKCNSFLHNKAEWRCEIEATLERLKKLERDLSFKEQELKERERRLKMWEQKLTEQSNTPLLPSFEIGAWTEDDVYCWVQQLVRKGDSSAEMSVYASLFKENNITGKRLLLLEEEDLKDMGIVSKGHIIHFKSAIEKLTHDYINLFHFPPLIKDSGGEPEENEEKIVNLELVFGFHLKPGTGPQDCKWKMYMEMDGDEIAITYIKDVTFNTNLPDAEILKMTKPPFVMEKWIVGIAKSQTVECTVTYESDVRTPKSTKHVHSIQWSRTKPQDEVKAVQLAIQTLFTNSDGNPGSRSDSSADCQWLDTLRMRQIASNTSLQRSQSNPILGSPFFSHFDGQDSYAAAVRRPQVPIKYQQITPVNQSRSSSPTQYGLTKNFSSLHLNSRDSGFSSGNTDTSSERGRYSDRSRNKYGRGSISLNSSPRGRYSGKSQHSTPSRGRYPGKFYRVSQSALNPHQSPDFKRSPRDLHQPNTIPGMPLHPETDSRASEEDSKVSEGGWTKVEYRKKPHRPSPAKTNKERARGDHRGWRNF
In assay [7] the target is Phosphatidylinositol 4-phosphate 5-kinase type-1 alpha (Homo sapiens) (UniProt Q99755). Put plainly: Selectivity interaction (KinomeScan (DiscoverX)) EUB0001868a PIP5K1A. To be noted: at 1 µM.
Phosphatidylinositol 4-phosphate 5-kinase type-1 alpha (Homo sapiens), sequence (Q99755 whole entry): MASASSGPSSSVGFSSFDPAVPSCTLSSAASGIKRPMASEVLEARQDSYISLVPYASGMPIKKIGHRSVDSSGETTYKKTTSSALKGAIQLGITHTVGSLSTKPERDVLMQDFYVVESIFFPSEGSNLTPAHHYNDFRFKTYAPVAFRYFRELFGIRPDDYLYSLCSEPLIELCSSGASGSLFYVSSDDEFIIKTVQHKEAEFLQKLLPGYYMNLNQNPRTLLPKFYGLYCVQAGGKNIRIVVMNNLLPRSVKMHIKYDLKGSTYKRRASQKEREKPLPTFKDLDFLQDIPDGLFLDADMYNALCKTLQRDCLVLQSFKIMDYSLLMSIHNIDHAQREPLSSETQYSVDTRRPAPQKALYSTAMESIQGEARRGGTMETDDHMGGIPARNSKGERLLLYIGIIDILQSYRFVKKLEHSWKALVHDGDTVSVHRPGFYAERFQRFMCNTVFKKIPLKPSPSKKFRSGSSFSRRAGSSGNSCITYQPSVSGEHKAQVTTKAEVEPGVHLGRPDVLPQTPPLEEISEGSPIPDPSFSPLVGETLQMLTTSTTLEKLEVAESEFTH
Assay [8] has as its target Rho-associated protein kinase 1 (Homo sapiens) (UniProt Q13464). Description: Selectivity interaction (KinomeScan (DiscoverX)) EUB0000666a ROCK1. To be noted: at 10 µM.
The target in assay [9] is Ribosomal protein S6 kinase alpha-1 (Homo sapiens, UniProt Q15418). Put plainly: Selectivity interaction (Kinase panel (Z-LYTE Assay)) EUB0001632a RPS6KA1. To be noted: at 10 µM.
Ribosomal protein S6 kinase alpha-1, sequence (Q15418 whole entry): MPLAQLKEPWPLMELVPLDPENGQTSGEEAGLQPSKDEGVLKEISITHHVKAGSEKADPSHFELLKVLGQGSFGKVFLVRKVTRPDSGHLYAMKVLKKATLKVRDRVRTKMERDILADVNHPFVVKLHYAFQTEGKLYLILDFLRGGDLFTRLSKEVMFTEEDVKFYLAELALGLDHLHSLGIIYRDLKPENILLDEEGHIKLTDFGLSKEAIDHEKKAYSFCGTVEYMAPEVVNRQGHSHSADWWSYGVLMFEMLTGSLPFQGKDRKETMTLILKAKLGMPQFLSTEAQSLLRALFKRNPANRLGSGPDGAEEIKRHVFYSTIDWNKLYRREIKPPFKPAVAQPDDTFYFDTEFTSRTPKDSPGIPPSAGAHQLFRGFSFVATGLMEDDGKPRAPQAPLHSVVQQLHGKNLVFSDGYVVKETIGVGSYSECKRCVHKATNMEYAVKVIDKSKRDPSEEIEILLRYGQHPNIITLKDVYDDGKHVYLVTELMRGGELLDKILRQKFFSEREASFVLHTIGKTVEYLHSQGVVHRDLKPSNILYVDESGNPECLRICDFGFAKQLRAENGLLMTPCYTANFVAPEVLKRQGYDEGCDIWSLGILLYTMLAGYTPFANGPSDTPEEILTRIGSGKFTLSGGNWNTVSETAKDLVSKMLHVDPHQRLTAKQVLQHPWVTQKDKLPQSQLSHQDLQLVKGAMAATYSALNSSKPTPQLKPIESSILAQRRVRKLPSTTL
For assay [10], the target named is cAMP-dependent protein kinase catalytic subunit alpha (Homo sapiens, UniProt P17612). Put plainly: Selectivity interaction (KinomeScan (DiscoverX)) EUB0000607a PRKACA. To be noted: at 10 µM.
Assay [11] deals with Serine/threonine-protein kinase OSR1 (Homo sapiens) (UniProt O95747). Description: Selectivity interaction (ActivX KiNativ screen (ex vivo kinase selectivity in human PBMCs)) EUB0001619a OXSR1. Format: cell-based. To be noted: PBMC, at 1 µM.
Serine/threonine-protein kinase OSR1 (Homo sapiens), sequence (O95747 2-527 limits assumed): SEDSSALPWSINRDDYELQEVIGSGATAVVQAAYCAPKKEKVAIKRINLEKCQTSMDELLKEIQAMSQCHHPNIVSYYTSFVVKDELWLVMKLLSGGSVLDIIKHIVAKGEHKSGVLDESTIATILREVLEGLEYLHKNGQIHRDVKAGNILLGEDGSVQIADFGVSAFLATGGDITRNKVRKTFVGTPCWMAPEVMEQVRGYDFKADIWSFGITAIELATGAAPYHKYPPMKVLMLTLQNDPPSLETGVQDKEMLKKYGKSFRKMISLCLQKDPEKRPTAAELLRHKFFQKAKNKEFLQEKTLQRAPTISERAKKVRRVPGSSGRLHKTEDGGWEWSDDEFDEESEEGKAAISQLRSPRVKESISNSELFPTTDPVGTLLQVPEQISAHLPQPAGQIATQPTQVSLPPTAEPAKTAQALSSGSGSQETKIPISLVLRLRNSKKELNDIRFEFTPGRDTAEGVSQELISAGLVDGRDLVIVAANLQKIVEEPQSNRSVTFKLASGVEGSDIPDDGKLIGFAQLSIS
The target of assay [12] is High affinity nerve growth factor receptor (Homo sapiens, UniProt P04629). Description: Selectivity interaction (Kinase panel (literature)) EUB0001199aCl NTRK1. To be noted: at 1 µM.
High affinity nerve growth factor receptor, sequence (P04629 33-796 limits assumed): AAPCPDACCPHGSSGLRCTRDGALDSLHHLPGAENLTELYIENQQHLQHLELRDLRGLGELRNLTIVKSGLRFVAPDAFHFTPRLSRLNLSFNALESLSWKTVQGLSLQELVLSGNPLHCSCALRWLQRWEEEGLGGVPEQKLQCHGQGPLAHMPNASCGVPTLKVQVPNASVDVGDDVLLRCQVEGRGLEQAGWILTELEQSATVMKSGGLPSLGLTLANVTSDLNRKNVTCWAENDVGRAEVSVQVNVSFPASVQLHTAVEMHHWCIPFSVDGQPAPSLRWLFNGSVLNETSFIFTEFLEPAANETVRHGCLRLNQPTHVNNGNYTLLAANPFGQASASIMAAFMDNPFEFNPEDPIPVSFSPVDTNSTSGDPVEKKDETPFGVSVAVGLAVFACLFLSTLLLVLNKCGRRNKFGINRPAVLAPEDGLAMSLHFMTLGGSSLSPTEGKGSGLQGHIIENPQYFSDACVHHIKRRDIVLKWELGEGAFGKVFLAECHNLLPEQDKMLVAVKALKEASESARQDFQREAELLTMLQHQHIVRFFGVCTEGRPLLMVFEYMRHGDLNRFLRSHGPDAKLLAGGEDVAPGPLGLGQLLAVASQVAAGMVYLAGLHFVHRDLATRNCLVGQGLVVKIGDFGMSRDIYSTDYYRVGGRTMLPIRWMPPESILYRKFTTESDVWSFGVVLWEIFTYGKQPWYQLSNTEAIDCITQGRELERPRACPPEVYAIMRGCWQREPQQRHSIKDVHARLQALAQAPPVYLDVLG
The target in assay [13] is Cyclin-dependent kinase 5 (Homo sapiens, UniProt Q00535). Put plainly: Selectivity interaction (KinomeScan (DiscoverX)) EUB0000618a CDK5. As to conditions: at 10 µM.
Cyclin-dependent kinase 5, sequence (Q00535 whole entry, looked up): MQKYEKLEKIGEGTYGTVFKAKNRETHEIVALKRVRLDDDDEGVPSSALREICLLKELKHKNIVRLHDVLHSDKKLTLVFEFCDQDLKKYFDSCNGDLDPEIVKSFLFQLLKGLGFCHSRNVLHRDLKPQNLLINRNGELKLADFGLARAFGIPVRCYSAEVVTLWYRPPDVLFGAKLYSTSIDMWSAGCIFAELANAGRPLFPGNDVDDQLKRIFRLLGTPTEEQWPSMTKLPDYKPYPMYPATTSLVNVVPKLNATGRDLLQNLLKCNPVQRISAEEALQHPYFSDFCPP

SMILES strings stand for the structures.

Rho-associated protein kinase 1 (Homo sapiens), sequence (Q13464 2-1354 limits assumed): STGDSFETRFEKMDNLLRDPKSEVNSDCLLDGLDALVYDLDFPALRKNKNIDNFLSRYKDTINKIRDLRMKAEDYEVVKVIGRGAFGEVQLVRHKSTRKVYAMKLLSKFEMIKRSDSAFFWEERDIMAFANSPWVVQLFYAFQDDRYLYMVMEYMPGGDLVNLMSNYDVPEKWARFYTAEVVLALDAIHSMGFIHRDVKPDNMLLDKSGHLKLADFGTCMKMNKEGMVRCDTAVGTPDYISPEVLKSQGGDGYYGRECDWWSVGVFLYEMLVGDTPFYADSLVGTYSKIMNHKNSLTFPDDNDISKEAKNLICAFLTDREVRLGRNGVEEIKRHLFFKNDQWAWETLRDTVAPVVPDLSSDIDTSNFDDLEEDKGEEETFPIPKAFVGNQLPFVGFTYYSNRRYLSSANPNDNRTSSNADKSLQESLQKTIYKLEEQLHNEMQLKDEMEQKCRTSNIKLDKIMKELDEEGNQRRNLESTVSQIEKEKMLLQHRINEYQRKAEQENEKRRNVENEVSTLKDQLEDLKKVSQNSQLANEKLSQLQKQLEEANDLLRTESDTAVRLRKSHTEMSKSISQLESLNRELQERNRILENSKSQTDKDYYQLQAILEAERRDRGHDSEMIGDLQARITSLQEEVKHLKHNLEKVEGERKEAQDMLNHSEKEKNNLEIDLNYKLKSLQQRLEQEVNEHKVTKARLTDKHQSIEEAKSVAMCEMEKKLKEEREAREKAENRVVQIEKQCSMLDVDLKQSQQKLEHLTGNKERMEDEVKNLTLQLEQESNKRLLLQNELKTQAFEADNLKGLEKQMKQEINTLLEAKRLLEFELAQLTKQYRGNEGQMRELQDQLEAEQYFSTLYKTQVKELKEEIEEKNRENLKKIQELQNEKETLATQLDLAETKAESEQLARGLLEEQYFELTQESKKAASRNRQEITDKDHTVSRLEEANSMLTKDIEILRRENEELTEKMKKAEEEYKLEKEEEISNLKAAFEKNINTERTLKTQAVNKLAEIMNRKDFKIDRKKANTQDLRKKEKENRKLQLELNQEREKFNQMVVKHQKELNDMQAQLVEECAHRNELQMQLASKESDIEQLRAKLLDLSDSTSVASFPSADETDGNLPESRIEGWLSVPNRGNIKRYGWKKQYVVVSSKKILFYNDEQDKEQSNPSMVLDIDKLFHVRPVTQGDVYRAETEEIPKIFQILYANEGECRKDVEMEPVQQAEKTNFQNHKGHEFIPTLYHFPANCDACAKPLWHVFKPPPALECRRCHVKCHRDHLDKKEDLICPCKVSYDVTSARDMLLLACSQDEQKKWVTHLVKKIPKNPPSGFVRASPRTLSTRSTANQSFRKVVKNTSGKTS

With `CCN(CC)CCCCNc1ncc2cc(-c3cc(OC)cc(OC)c3)c(NC(=O)NC(C)(C)C)nc2n1`, in [1], the % of control was 100%. Turning to `Nc1cnc(N2CCc3cc(S(=O)(=O)Nc4c(F)cc(Cl)cc4F)cc(N4CCCC4=O)c32)nc1` [TP-020n], the % of control in assay [2] turned out to be 99%. For `CC(=O)Nc1cccc(-n2c(=O)n(C3CC3)c(=O)c3c(Nc4ccc(I)cc4F)n(C)c(=O)c(C)c32)c1`, in assay [3], the % of control is 109%. For `COc1cc(C(=O)N2CC[C@@H](O)[C@@H](N)C2)cc2nc(-c3cc4ccccc4n3CC3CC3)n(C)c12`, the pXC50 in assay [4] worked out at 5.9 M.

`Cc1cc(CN)cc(C)c1-c1ncn(C)c1-c1cncn1C`: the % activity in assay [5] (at 1 µM) was more than 90%; in [5] (at 10 µM) it was more than 80%. For the molecule `C=CC(=O)Nc1cc(-n2c(=O)ccc3cnc4ccc(-c5ccc(NS(C)(=O)=O)cc5)cc4c32)ccc1C`, the % of control in assay [6] (at 1 µM) is 64%; in [6] (at 10 µM) it was 12%. On to `Cc1cc(-c2ccnc(Nc3cnn(C)c3)n2)ccc1CNC(=O)N1CC(OC(C)C)C1`, for which the % of control in assay [7] came out at 28%.

Take `O=C(NOC[C@H](O)CO)c1ccc(F)c(F)c1Nc1ccc(I)cc1F`: the % of control in [8] was 100%. Consider `Cn1cc(-n2cnc3c(NCc4nc5cc(Cl)c(Cl)cc5[nH]4)nc(N4CCOCC4)nc32)cn1`, for which the % of control in assay [9] is -6.37%. Take `CNC(=O)Nc1ccc(-c2nc(N3CC4CCC(C3)O4)c3cnn(C4CCC5(CC4)OCCO5)c3n2)cc1`: the % of control in assay [10] was 75%.

Take `N#Cc1cccc(-c2c[nH]c3ncnc(N4CCOCC4)c23)c1`: in [11], the % of inhibition is -55%. Regarding `CN1Cc2nccc(-c3cn(C)nc3-c3ccc(F)cc3)c2C1=O`, the % of inhibition in assay [12] was 15%. As to `O[C@H]1CC[C@H](Nc2ncc3nc(Nc4c(F)cc(F)cc4F)n([C@H]4CCOC4)c3n2)CC1`, the % of control in [13] is 100%.
